Test results published in patent US10344060B2 (priority 2013, dated 2019).

Assays:
Experiment in all cases: cell-based
[1] = molecular target: mNav1.7 (Mus musculus, UniProt Q62205); details: for IC50: PatchXpress, tonic block, mouse Nav1.7, read-out: PX mNav1.7 Tonic IC50; for mNav1.7/hNav1.7: ratio of PX tonic IC50, mouse Nav1.7 over human Nav1.7
[2] = molecular target: rNav1.7 (Rattus norvegicus, UniProt O08562); details: for IC50: PatchXpress, tonic block, rat Nav1.7, read-out: PX rNav1.7 Tonic IC50; for rNav1.7/hNav1.7: ratio of PX tonic IC50, rat Nav1.7 over human Nav1.7
[3] = molecular target: hNav1.7 (Homo sapiens, UniProt Q15858); type: cell-based; details: PatchXpress, tonic block, human Nav1.7; read-out: PX hNav1.7 Tonic IC50

Chain of mNav1.7 (Q62205 whole entry): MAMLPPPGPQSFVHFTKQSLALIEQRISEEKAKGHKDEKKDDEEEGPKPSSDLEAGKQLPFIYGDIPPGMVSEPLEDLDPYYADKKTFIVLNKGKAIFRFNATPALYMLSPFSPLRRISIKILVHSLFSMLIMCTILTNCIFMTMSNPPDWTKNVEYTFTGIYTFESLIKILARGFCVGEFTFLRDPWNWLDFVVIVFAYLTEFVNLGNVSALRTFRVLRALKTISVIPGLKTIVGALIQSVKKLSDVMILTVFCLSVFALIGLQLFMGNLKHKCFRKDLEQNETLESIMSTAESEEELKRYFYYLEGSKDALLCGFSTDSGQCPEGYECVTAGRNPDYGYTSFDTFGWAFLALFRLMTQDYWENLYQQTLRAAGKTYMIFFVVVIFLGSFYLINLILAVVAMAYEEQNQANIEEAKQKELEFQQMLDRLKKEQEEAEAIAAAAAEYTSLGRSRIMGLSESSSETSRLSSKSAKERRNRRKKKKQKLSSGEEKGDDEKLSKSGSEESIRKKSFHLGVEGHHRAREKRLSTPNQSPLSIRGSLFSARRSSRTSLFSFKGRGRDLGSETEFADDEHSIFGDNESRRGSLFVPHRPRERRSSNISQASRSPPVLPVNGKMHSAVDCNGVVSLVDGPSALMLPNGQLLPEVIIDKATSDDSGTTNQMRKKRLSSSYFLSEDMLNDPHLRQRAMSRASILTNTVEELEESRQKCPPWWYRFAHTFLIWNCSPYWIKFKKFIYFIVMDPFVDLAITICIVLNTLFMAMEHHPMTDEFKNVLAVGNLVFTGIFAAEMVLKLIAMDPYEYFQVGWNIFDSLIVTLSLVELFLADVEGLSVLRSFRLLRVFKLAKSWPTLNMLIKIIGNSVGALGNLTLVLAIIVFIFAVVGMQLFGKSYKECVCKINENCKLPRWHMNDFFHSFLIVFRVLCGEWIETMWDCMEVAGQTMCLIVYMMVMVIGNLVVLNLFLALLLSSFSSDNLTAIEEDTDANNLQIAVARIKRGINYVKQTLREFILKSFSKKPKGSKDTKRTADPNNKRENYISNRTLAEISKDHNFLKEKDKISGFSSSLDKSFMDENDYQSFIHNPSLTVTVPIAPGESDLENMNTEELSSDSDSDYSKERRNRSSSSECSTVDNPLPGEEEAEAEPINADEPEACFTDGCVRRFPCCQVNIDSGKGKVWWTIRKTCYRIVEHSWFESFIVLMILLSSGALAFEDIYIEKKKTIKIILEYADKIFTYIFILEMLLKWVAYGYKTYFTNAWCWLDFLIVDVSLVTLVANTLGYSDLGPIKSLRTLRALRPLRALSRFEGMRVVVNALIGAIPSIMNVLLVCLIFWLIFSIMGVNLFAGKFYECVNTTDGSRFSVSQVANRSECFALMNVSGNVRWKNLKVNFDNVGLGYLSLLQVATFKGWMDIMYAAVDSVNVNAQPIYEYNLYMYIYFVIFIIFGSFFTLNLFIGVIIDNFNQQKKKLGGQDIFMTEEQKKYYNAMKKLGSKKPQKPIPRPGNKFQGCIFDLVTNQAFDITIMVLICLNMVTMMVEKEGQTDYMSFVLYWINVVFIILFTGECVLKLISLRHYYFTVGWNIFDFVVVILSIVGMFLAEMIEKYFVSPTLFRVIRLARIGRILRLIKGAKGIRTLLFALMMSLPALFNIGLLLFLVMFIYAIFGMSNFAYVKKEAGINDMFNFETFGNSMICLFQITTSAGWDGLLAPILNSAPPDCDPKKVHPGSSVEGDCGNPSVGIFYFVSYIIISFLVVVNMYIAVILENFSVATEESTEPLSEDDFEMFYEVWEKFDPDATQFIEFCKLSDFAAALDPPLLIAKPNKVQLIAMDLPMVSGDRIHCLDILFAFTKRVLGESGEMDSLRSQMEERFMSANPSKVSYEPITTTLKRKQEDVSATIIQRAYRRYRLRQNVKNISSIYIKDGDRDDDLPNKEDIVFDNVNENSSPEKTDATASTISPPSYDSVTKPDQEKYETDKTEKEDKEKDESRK
Chain of rNav1.7 (O08562 whole entry): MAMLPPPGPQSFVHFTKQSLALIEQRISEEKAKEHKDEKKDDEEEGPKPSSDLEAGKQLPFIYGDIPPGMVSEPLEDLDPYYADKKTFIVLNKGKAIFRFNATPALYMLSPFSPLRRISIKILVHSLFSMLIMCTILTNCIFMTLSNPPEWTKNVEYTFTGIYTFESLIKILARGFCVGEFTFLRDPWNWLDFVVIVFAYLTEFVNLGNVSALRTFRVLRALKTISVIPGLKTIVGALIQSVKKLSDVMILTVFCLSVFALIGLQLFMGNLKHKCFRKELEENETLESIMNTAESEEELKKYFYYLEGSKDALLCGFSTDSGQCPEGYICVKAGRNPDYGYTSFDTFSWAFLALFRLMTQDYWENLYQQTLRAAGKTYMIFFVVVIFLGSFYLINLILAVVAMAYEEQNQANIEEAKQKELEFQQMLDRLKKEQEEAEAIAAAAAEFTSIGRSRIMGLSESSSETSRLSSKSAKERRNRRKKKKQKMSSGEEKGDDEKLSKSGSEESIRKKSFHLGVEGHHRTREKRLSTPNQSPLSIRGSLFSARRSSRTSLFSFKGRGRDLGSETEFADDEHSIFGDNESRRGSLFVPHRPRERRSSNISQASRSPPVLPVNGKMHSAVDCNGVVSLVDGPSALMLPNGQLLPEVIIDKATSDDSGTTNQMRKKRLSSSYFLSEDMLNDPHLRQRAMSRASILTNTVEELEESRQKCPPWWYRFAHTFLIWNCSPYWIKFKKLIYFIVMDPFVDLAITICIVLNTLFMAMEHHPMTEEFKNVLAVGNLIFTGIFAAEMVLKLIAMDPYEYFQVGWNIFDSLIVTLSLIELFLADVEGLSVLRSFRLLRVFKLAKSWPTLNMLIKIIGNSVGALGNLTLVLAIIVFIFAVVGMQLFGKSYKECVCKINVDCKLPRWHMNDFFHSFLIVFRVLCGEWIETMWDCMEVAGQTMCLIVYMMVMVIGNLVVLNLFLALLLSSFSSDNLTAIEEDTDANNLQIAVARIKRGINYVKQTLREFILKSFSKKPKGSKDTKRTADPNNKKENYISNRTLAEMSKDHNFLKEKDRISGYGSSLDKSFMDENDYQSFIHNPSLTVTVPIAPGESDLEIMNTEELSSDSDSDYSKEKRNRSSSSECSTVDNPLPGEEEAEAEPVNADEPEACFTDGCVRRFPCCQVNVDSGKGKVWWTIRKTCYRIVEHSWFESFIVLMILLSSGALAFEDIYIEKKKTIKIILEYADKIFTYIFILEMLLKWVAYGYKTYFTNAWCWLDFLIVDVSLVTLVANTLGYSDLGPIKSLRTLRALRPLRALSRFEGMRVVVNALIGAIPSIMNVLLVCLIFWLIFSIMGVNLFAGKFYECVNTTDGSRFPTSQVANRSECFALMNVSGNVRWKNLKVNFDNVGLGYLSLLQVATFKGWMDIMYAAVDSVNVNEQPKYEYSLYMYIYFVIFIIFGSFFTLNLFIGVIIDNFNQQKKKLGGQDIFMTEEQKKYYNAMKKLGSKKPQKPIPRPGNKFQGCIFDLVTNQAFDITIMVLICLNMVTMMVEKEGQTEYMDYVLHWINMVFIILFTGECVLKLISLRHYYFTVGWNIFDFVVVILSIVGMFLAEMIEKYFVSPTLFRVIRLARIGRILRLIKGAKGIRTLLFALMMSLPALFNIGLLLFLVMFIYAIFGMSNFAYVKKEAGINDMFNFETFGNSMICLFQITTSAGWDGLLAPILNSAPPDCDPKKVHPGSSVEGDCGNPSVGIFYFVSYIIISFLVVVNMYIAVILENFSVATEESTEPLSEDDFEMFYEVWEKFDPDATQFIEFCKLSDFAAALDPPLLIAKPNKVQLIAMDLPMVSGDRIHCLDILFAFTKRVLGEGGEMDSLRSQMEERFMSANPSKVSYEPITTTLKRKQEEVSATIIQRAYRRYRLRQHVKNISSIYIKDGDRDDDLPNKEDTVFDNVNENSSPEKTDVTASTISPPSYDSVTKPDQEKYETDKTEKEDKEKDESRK

## C#CC[C@H](N)C(=O)N[C@@H](Cc1ccc(O)cc1)C(=O)N[C@H]1CSSC[C@@H]2NC(=O)[C@@H]3CSSC[C@@H](C(=O)N[C@@H](CCCNC(=N)N)C(=O)N[C@@H](CCCCN)C(=O)N[C@@H](CCC(=O)O)C(=O)N[C@@H](Cc4ccccc4)C(N)=O)NC(=O)[C@H](Cc4c[nH]c5ccccc45)NC(=O)[C@H](CC(C)C)NC(=O)[C@H](CCCCN)NC(=O)[C@H](CSSC[C@H](NC(=O)[C@H]([C@@H](C)O)NC(=O)[C@H](Cc4c[nH]c5ccccc45)NC(=O)[C@H](CCCC)NC(=O)[C@H](Cc4c[nH]c5ccccc45)NC(=O)[C@H](CCCCN)NC(=O)[C@H](CCC(N)=O)NC1=O)C(=O)N[C@@H](CC(=O)O)C(=O)N[C@@H](CO)C(=O)N[C@@H](CCCCN)C(=O)N[C@@H](CCCNC(=N)N)C(=O)N[C@@H](C)C(=O)N3)NC(=O)[C@H](CCCNC(=N)N)NC(=O)[C@H](CC(C)C)NC(=O)CNC(=O)[C@H](CCC(=O)O)NC2=O [Pra-[Nle6; Glu28; Phe29]JzTx-V(1-29)]
[1]
  IC50: 3.45 nM
  mNav1.7/hNav1.7: 8.90
[2]
  IC50: 0.296 nM
  rNav1.7/hNav1.7: 0.76

## CC[C@H](C)[C@H](NC(=O)[C@H](CCCCN)NC(=O)[C@H](CCCNC(=N)N)NC(=O)[C@@H]1CSSC[C@@H]2NC(=O)[C@H](C)NC(=O)[C@H](CCCNC(=N)N)NC(=O)[C@H](CCCCN)NC(=O)[C@H](CO)NC(=O)[C@H](CC(=O)O)NC(=O)[C@@H]3CSSC[C@H](NC(=O)[C@H](CCC(=O)O)NC(=O)[C@H](CC(C)C)NC(=O)CNC(=O)[C@H](CCC(=O)O)NC(=O)[C@H](CSSC[C@H](NC(=O)[C@@H](N)Cc4ccc(O)cc4)C(=O)N[C@@H](CCC(N)=O)C(=O)N[C@@H](CCCCN)C(=O)N[C@@H](Cc4c[nH]c5ccccc45)C(=O)N[C@@H](CCSC)C(=O)N[C@@H](Cc4c[nH]c5ccccc45)C(=O)N[C@@H]([C@@H](C)O)C(=O)N3)NC2=O)C(=O)N[C@@H](CCCCN)C(=O)N[C@@H](CC(C)C)C(=O)N[C@@H](Cc2c[nH]c3ccccc23)C(=O)N1)C(=O)N[C@@H](Cc1c[nH]c2ccccc12)C(N)=O [[Glu20, Trp29]JzTx-V]
[1]
  IC50: 5.08 nM
  mNav1.7/hNav1.7: 3.20
[2]
  IC50: 1.3 nM
  rNav1.7/hNav1.7: 0.82

## C#CC[C@H](N)C(=O)N[C@@H](Cc1ccc(O)cc1)C(=O)N[C@H]1CSSC[C@@H]2NC(=O)[C@@H]3CSSC[C@@H](C(=O)N[C@@H](CCCNC(=N)N)C(=O)N[C@@H](CCCCN)C(=O)N[C@@H](CCC(=O)O)C(=O)N[C@H](C(N)=O)[C@@H](C)CC)NC(=O)[C@H](Cc4c[nH]c5ccccc45)NC(=O)[C@H](C4CCCCC4)NC(=O)[C@H](CCCCN)NC(=O)[C@H](CSSC[C@H](NC(=O)[C@H]([C@@H](C)O)NC(=O)[C@H](Cc4c[nH]c5ccccc45)NC(=O)[C@H](CCCC)NC(=O)[C@H](Cc4c[nH]c5ccccc45)NC(=O)[C@H](CCCCN)NC(=O)[C@H](CCC(N)=O)NC1=O)C(=O)N[C@@H](CC(=O)O)C(=O)N[C@@H](CO)C(=O)N[C@@H](CCCCN)C(=O)N[C@@H](CCCNC(=N)N)C(=O)N[C@@H](C)C(=O)N3)NC(=O)[C@H](CCCNC(=N)N)NC(=O)[C@H](CC(C)C)NC(=O)CNC(=O)[C@H](CCC(=O)O)NC2=O [Pra-[Nle6; Chg23; Glu28]JzTx-V(1-29)]
[1]
  IC50: 0.884 nM
  mNav1.7/hNav1.7: 1.81
[2]
  IC50: 3.27 nM
  rNav1.7/hNav1.7: 6.68

## C#CC[C@H](NC(=O)[C@@H](N)CCC(=O)O)C(=O)N[C@H]1CSSC[C@@H]2NC(=O)[C@@H]3CSSC[C@@H](C(=O)N[C@@H](CCCNC(=N)N)C(=O)N[C@@H](CCCCN)C(=O)N[C@@H](CCC(=O)O)C(=O)N[C@H](C(N)=O)[C@@H](C)CC)NC(=O)[C@H](Cc4c[nH]c5ccccc45)NC(=O)[C@H](CC(C)C)NC(=O)[C@H](CCCCN)NC(=O)[C@H](CSSC[C@H](NC(=O)[C@H]([C@@H](C)O)NC(=O)[C@H](Cc4c[nH]c5ccccc45)NC(=O)[C@H](CCCC)NC(=O)[C@H](Cc4c[nH]c5ccccc45)NC(=O)[C@H](CCCCN)NC(=O)[C@H](CCC(N)=O)NC1=O)C(=O)N[C@@H](CC(=O)O)C(=O)N[C@@H](CO)C(=O)N[C@@H](CCCCN)C(=O)N[C@@H](CCCNC(=N)N)C(=O)N[C@@H](CCC(=O)O)C(=O)N3)NC(=O)[C@H](CCCNC(=N)N)NC(=O)[C@H](CC(C)C)NC(=O)CNC(=O)[C@H](CCC(=O)O)NC2=O [Glu-[Pra1; Nle6; Glu14, 28]JzTx-V(1-29)]
[1]
  IC50: 16.1 nM
  mNav1.7/hNav1.7: 28.63
[2]
  IC50: 3.34 nM
  rNav1.7/hNav1.7: 5.94

## CCCC[C@@H]1NC(=O)[C@H](Cc2c[nH]c3ccccc23)NC(=O)[C@H](CCCCN)NC(=O)[C@H](CCC(N)=O)NC(=O)[C@@H](NC(=O)[C@H](Cc2ccc(O)cc2)NC(=O)[C@@H](N)CC#N)CSSC[C@@H]2NC(=O)[C@@H]3CSSC[C@@H](C(=O)N[C@@H](CCCNC(=N)N)C(=O)N[C@@H](CCCCN)C(=O)N[C@@H](CCC(=O)O)C(=O)N[C@H](C(N)=O)[C@@H](C)CC)NC(=O)[C@H](Cc4c[nH]c5ccccc45)NC(=O)[C@H](CC(C)C)NC(=O)[C@H](CCCCN)NC(=O)[C@H](CSSC[C@H](NC(=O)[C@H]([C@@H](C)O)NC(=O)[C@H](Cc4c[nH]c5ccccc45)NC1=O)C(=O)N[C@@H](CC(=O)O)C(=O)N[C@@H](CO)C(=O)N[C@@H](CCCCN)C(=O)N[C@@H](CCCNC(=N)N)C(=O)N[C@@H](C)C(=O)N3)NC(=O)[C@H](CCCNC(=N)N)NC(=O)[C@H](CC(C)C)NC(=O)CNC(=O)[C@H](Cc1cn(CCCOCCOCCOCCOCCOCCOCCOCCOCCOCCOCCN)nn1)NC2=O
[1]
  mNav1.7/hNav1.7: 2.23
[2]
  rNav1.7/hNav1.7: 0.46

## C#CC[C@H](N)C(=O)N[C@@H](Cc1ccc(O)cc1)C(=O)N[C@H]1CSSC[C@@H]2NC(=O)[C@@H]3CSSC[C@@H](C(=O)N[C@@H](CCCNC(=N)N)C(=O)N[C@@H](CCCCN)C(=O)N[C@@H](CCC(=O)O)C(=O)N[C@H](C(N)=O)[C@@H](C)CC)NC(=O)[C@H](Cc4c[nH]c5ccc(Br)cc45)NC(=O)[C@H](CC(C)C)NC(=O)[C@H](CCCCN)NC(=O)[C@H](CSSC[C@H](NC(=O)[C@H]([C@@H](C)O)NC(=O)[C@H](Cc4c[nH]c5ccccc45)NC(=O)[C@H](CCCC)NC(=O)[C@H](Cc4c[nH]c5ccccc45)NC(=O)[C@H](CCCCN)NC(=O)[C@H](CCC(N)=O)NC1=O)C(=O)N[C@@H](CC(=O)O)C(=O)N[C@@H](CO)C(=O)N[C@@H](CCCCN)C(=O)N[C@@H](CCCNC(=N)N)C(=O)N[C@@H](C)C(=O)N3)NC(=O)[C@H](CCCNC(=N)N)NC(=O)[C@H](CC(C)C)NC(=O)CNC(=O)[C@H](CCC(=O)O)NC2=O [Pra-[Nle6; 5-BrW24; Glu28]JzTx-V(1-29)]
[1]
  IC50: 0.911 nM
  mNav1.7/hNav1.7: 23.34
[2]
  IC50: 2.43 nM
  rNav1.7/hNav1.7: 62.26

## CCCC[C@@H]1NC(=O)[C@H](Cc2c[nH]c3ccccc23)NC(=O)[C@H](CCCCN)NC(=O)[C@H](CCC(N)=O)NC(=O)[C@@H](NC(=O)[C@H](Cc2ccc(O)cc2)NC(=O)[C@@H](N)CC#N)CSSC[C@@H]2NC(=O)[C@@H]3CSSC[C@@H](C(=O)N[C@@H](CCCNC(=N)N)C(=O)N[C@@H](CCCCN)C(=O)N[C@H](C(=O)N[C@H](C(N)=O)[C@@H](C)CC)[C@@H](C)CC)NC(=O)[C@H](Cc4c[nH]c5ccccc45)NC(=O)[C@H](CC(C)C)NC(=O)[C@H](CCCCN)NC(=O)[C@H](CSSC[C@H](NC(=O)[C@H]([C@@H](C)O)NC(=O)[C@H](Cc4c[nH]c5ccccc45)NC1=O)C(=O)N[C@@H](CC(=O)O)C(=O)N[C@@H](CO)C(=O)N[C@@H](CCCCN)C(=O)N[C@@H](CCCNC(=N)N)C(=O)N[C@@H](C)C(=O)N3)NC(=O)[C@H](CCCNC(=N)N)NC(=O)[C@H](CC(C)C)NC(=O)CNC(=O)[C@H](CCC(=O)O)NC2=O [CyA-[Nle6]JzTx-V(1-29)]
[3]
  IC50: 0.31 nM
[1]
  IC50: 0.957 nM
  mNav1.7/hNav1.7: 3.09

## CCCC[C@@H]1NC(=O)[C@H](Cc2c[nH]c3ccccc23)NC(=O)[C@H](CCCCN)NC(=O)[C@H](CCC(N)=O)NC(=O)[C@@H](NC(=O)[C@H](Cc2ccc(O)cc2)NC(=O)[C@@H](N)Cc2cn(CCOCCOCCOCCOCCOCCOCCOCCOCCOCCOCCN)nn2)CSSC[C@@H]2NC(=O)[C@@H]3CSSC[C@@H](C(=O)N[C@@H](CCCNC(=N)N)C(=O)N[C@@H](CCCCN)C(=O)N[C@H](C(=O)N[C@H](C(N)=O)[C@@H](C)CC)[C@@H](C)CC)NC(=O)[C@H](Cc4c[nH]c5ccccc45)NC(=O)[C@H](CC(C)C)NC(=O)[C@H](CCCCN)NC(=O)[C@H](CSSC[C@H](NC(=O)[C@H]([C@@H](C)O)NC(=O)[C@H](Cc4c[nH]c5ccccc45)NC1=O)C(=O)N[C@@H](CC(=O)O)C(=O)N[C@@H](CO)C(=O)N[C@@H](CCCCN)C(=O)N[C@@H](CCCNC(=N)N)C(=O)N[C@@H](C)C(=O)N3)NC(=O)[C@H](CCCNC(=N)N)NC(=O)[C@H](CC(C)C)NC(=O)CNC(=O)[C@H](CCC(=O)O)NC2=O [Atz(NPEG9)-[Nle6]JzTx-V(1-29)]
[1]
  mNav1.7/hNav1.7: 1.65
[2]
  rNav1.7/hNav1.7: 0.22

## CCCC[C@@H]1NC(=O)[C@H](Cc2c[nH]c3ccccc23)NC(=O)[C@H](CCCCN)NC(=O)[C@H](CCC(N)=O)NC(=O)[C@@H](NC(=O)[C@H](Cc2ccc(O)cc2)NC(=O)[C@H](N)CC(C)C)CSSC[C@@H]2NC(=O)[C@@H]3CSSC[C@@H](C(=O)N[C@@H](CCCNC(=N)N)C(=O)N[C@@H](CCCCN)C(=O)N[C@H](C(=O)N[C@H](C(N)=O)[C@@H](C)CC)[C@@H](C)CC)NC(=O)[C@H](Cc4c[nH]c5ccccc45)NC(=O)[C@H](CC(C)C)NC(=O)[C@H](CCCCN)NC(=O)[C@H](CSSC[C@H](NC(=O)[C@H]([C@@H](C)O)NC(=O)[C@H](Cc4c[nH]c5ccccc45)NC1=O)C(=O)N[C@@H](CC(=O)O)C(=O)N[C@@H](CO)C(=O)N[C@@H](CCCCN)C(=O)N[C@@H](CCCNC(=N)N)C(=O)N[C@@H](C)C(=O)N3)NC(=O)[C@H](CCCNC(=N)N)NC(=O)[C@H](CC(C)C)NC(=O)CNC(=O)[C@H](CCC(=O)O)NC2=O [D-Leu-[Nle6]JzTx-V(1-29)]
[3]
  IC50: 0.15 nM
[1]
  IC50: 12.6 nM
  mNav1.7/hNav1.7: 84.00
